Article PMC10328743, “5-Nitro-3-(2-(4-phenylthiazol-2-yl)hydrazineylidene)indolin-2-one derivatives inhibit HIV-1 replication by a multitarget mechanism of action” (Frontiers in Cellular and Infection Microbiology, 2023)
Where two headings read alike, the source gives them in different places.

How the values were obtained:
HIV-1 RT-associated RDDP = biological target: T1, HIV-1 RT-associated RDDP (Human immunodeficiency virus type 1 group M subtype B, UniProt P04585); assay: HIV-1 RNA-dependent DNA polymerase activity determination; format: biochemical
T1 construct: The 1:1 ratio between the p66/p51 subunits was also verified; His tag (implied only by Ni-NTA IMAC purification); made in house; host or cells: Escherichia coli M15
Protocol: (§1) Escherichia coli strain M15 containing the p6HRT-prot vector (provided by Stuart Le Grice laboratory (NCI Frederick)) was grown to an optical density at 600 nm of 0.7 and induced with 1.7 mM of isopropyl β-D-1-thiogalactopyranoside (IPTG) for 4 h. Protein purification was carried out with a BioLogic LP system (Bio-Rad, Hercules, CA, USA) using a combination of immobilized metal affinity chromatography (IMAC) and ion exchange chromatography. Cell pellets were resuspended in lysis buffer (50 mM of sodium phosphate buffer, pH 7.8, containing 0.5 mg/mL of lysozyme), incubated on ice for 20 min, and, after the addition of NaCl to a final concentration of 0.3 M, were sonicated and centrifuged at 30,000 ×g for 1 h. The supernatant was loaded onto a Ni^2+-NTA-Sepharose column pre-equilibrated with loading buffer (50 mM of sodium phosphate buffer, pH 7.8, containing 0.3 M of NaCl, 10% glycerol, and 10 mM of imidazole) and washed thoroughly with wash buffer (50 mM of sodium phosphate buffer, pH 6.0, containing 0.3 M of NaCl, 10% glycerol, and 80 mM of imidazole). RT was eluted with an imidazole gradient in the wash buffer (0–0.5 M). Fractions were collected, and protein purity was checked by sodium dodecyl sulfate–polyacrylamide gel electrophoresis (SDS-PAGE) and found to be higher than 90%. The 1:1 ratio between the p66/p51 subunits was also verified. Enzyme-containing fractions were pooled and diluted 1:1 with 50 mM of sodium phosphate buffer, pH 7.0, containing 10% glycerol, and then loaded into a Hi-trap heparin HP GE (Healthcare LifeScience) pre-equilibrated with 10 column volumes of loading buffer (50 mM of sodium phosphate buffer, pH 7.0, containing 10% glycerol, and 150 mM of NaCl). The column was then washed with loading buffer, and the RT was eluted with Elute Buffer 2 (50 mM of sodium phosphate, pH 7.0, 10% glycerol, 1 M of NaCl). Fractions were collected, and the protein was dialyzed and stored in a buffer containing 50 mM of Tris-HCl, pH 7.0, 25 mM of NaCl, 1 mM of EDTA, and 50% glycerol. Catalytic activities and protein concentrations were determined. Enzyme-containing fractions were pooled, and aliquots were stored at −80°C.
RDDP activity was measured as previously reported in 25-µl volume containing 60 mM of Tris‐HCl buffer, pH 8.1, 8 mM of MgCl2, 60 mM of KCl, 13 mM of DTT, 2.5 µM of poly(A)-oligo(dT), 100 µM of dTTP, increasing concentrations of inhibitors, whose dilution were made in water, and different amounts of enzymes according to a linear range of the dose–response curve. The reaction mixture was incubated for 30 min at 37°C and then stopped by the addition of EDTA. Reaction products were detected by pico green addition and measured with a multilabel counter plate reader Victor 3, equipped with filters for 502/523 nm.

HIV-1 = HIV-1 replication inhibition in MT4 cells; format: cell-based
Protocol: (§2) HIV-1 replication was carried out in MT4 cells as previously reported ([Corona et al., 2016a]) using a molecular clone derived from the pNL4-3 ([Thierry et al., 2015]). A total of 120 ng of p24^gag antigen per 10^6 cells, corresponding to a multiplicity of infection (m.o.i.) of 0.3, was used for infection. […] Flow cytometry analysis was performed on a FACSCalibur flow cytometer (BD Biosciences, San Jose, CA, USA), and the results were analyzed using the […] software.

[1] = Viability of infected MT4 cells (cytotoxicity); format: cell-based; conditions: human, infected MT4 cells viability, three independent experiments, average ± standard deviation
Protocol: as §2

[2] = biological target: T2, HIV-1 RT-associated RNase H (Human immunodeficiency virus type 1 group M subtype B, UniProt P04585); assay: HIV-1 DNA polymerase-independent RNase H activity determination; format: biochemical
T2 construct: The 1:1 ratio between the p66/p51 subunits was also verified; His tag (implied only by Ni-NTA IMAC purification); made in house; host or cells: Escherichia coli M15
Protocol: as §1
HIV RT-associated RNase H activity was measured as described ([Corona et al., 2016b]) in a 100-µl reaction volume containing 50 mM of Tris-HCl buffer, pH 7.8, 6 mM of MgCl2, 1 mM of dithiothreitol (DTT), 80 mM of KCl, 0.25 µM of hybrid RNA/DNA 5′-[…]-Fluorescin-3′ (high-performance liquid chromatography (HPLC), dry, QC: Mass Check) (available from Metabion) 5′-Dabcyl-[…]-3′ (HPLC, dry, QC: Mass Check), increasing concentrations of inhibitors, whose dilution were made in water, and different amounts of enzymes according to a linear range of the dose–response curve. The reaction mixture was incubated for 1 h at 37°C and stopped by the addition of EDTA, and products were measured with a multilabel counter plate reader Victor 3 equipped with filters for 490/528 nm.

[3] = wt HIV-1 RT, three independent experiments, average ± standard deviation, read-out: RDDP IC50
[4] = Human immunodeficiency virus 1, MT4, viral replication in MT4 cells, three independent experiments, average ± standard deviation, read-out: HIV-1 EC50
[5] = wt HIV-1 RT, three independent experiments, average ± standard deviation, read-out: RNase H IC50
[6] = Human immunodeficiency virus 1, MT4, read-out: HIV-1 EC50

| SMILES | IC50 (HIV-1 RT-associated RDDP; [3]) | EC50 (HIV-1; [4]) | CC50 ([1]; MT4 cells infected with HIV-1) | IC50 [2, 5] | IC50 (HIV-1 RT-associated RDDP) | EC50 (HIV-1; [6]) | CC50 [1] | IC50 [2] |
| --- | --- | --- | --- | --- | --- | --- | --- | --- |
| O=C1Nc2ccc(Cl)cc2C1=NNc1nc(-c2ccc(Cl)cc2)cs1 [1b] | 30 ± 7.5 µM | > 100 µM | > 100 µM | 12 ± 2.3 µM |  |  |  |  |
| Cn1c(-c2ccc(Cl)cc2)cs/c1=N\N=C1/C(=O)Nc2ccc([N+](=O)[O-])cc21 [1c] | 24 ± 3 µM | > 42 µM | 42 ± 8 µM | 8.2 ± 1 µM |  |  |  |  |
| O=C1Nc2ccc([N+](=O)[O-])cc2/C1=N/Nc1nc(-c2ccc(F)cc2)cs1 [2a] | 9.5 ± 0.5 µM | > 100 µM | > 100 µM | 5.1 ± 2 µM |  |  |  |  |
| O=C1Nc2ccc(Cl)cc2/C1=N/Nc1nc(-c2ccc(F)cc2)cs1 [2b] | 7.5 ± 1.5 µM | > 56 µM | 56 ± 6 µM | 4.5 ± 0.2 µM |  |  |  |  |
| Cn1c(-c2ccc(F)cc2)cs/c1=N\N=C1/C(=O)Nc2ccc([N+](=O)[O-])cc21 [2c] | 21 ± 1 µM | > 7 µM | 7 ± 1.6 µM | 5.6 ± 0.6 µM |  |  |  |  |
| O=C1Nc2ccc(Cl)cc2/C1=N/Nc1nc(-c2ccc(Br)cc2)cs1 [3b] | 8.3 ± 0.6 µM | > 95 µM | 95 ± 14 µM | 4.4 ± 0.1 µM |  |  |  |  |
| Cn1c(-c2ccc(Br)cc2)cs/c1=N\N=C1/C(=O)Nc2ccc([N+](=O)[O-])cc21 [3c] | 19.5 ± 3.3 µM | > 25 µM | 25 ± 3.1 µM | 7.7 ± 1.2 µM |  |  |  |  |
| O=C1Nc2ccc([N+](=O)[O-])cc2/C1=N/Nc1nc(-c2ccc([N+](=O)[O-])cc2)cs1 [4a] |  |  |  |  | 21 ± 3 µM | > 100 µM | > 100 µM | 7.6 ± 1.4 µM |
| O=C1Nc2ccc(Cl)cc2/C1=N/Nc1nc(-c2ccc([N+](=O)[O-])cc2)cs1 [4b] | 14.9 ± 2.7 µM | > 50 µM | 50 ± 12 µM | 15.3 ± 1.5 µM |  |  |  |  |
| Cn1c(-c2ccc([N+](=O)[O-])cc2)cs/c1=N\N=C1/C(=O)Nc2ccc([N+](=O)[O-])cc21 [4c] |  |  |  |  | 6 ± 0.5 µM | > 5.5 µM | 5.5 ± 0.9 µM | 1.9 ± 0.2 µM |
| O=C1Nc2ccc([N+](=O)[O-])cc2/C1=N/Nc1nc(-c2ccc(-c3ccccc3)cc2)cs1 [5a] | 12 ± 3 µM | > 100 µM | > 100 µM | 7.1 ± 0.1 µM |  |  |  |  |
| O=C1Nc2ccc(Cl)cc2/C1=N/Nc1nc(-c2ccc(-c3ccccc3)cc2)cs1 [5b] | 38 ± 5 µM |  |  | 13.2 ± 1.6 µM |  |  |  |  |
| Cn1c(-c2ccc(-c3ccccc3)cc2)cs/c1=N\N=C1/C(=O)Nc2ccc([N+](=O)[O-])cc21 [5c] | 11.4 ± 2.2 µM | > 7 µM | 7 ± 1.4 µM | 6.1 ± 1.1 µM |  |  |  |  |
| N#Cc1ccc(-c2csc(N/N=C3\C(=O)Nc4ccc([N+](=O)[O-])cc43)n2)cc1 [6a] | 9.3 ± 0.3 µM | > 100 µM | > 100 µM | 6 ± 0.1 µM |  |  |  |  |
| N#Cc1ccc(-c2csc(N/N=C3\C(=O)Nc4ccc(Cl)cc43)n2)cc1 [6b] | 34 ± 6 µM | > 95 µM | 95 ± 5 µM | 7.8 ± 0.1 µM |  |  |  |  |
